Where “and” joins values, the source holds several entries; their conditions need not be identical. Equal entries are not always repeated. Entries after “also recorded” stand apart in the source; their conditions may differ. Each block holds one molecule with its values, some of them ahead of it.
Columns and labels:
[1] = Stability tests in PBS (0.1 M, pH 7.4) at 37° C., Examples 29 and 33; format: physicochemical; conditions: for % intact tracer: PBS 0.1M pH 7.4, 37° C.; for stability in PBS (in words): 37° C.
Method: (§5) These mixtures were incubated at 37° C. and analysed by iTLC-SG at 10, 30, 60, 120, 180 and 240 min after the start of the incubation (N=3). Serum samples were denatured by addition of 50 μl of the serum solution to 50 μl of acetonitrile. The mixture was stirred and centrifuged (1300 g, 3 min). Finally the supernatant was analysed using iTLC-SG.

[2] = Stability tests in rat serum at 37° C., Examples 29 and 33
Method: as §5

[3] = Stability tests of Al18F-complexes in different buffers ranging from pH 2 to 8 (room temperature, iTLC-SG); format: physicochemical; conditions: buffers pH 2 to 8, room temperature, 30 and 60 min
Method: (§1) 200 μl of the purified Al^18F-L3 solution was added to 1 mL of sodium phosphate buffer (0.1 M, pH 2), sodium phosphate buffer (0.1 M, pH 3), sodium acetate buffer (0.1 M, pH 4), sodium acetate buffer (0.1 M, pH 5), sodium acetate buffer (0.1 M, pH 6), PBS buffer (0.1 M, pH 7) or Tris-HCl buffer (0.1 M, pH 8). These mixtures were incubated at room temperature and analyzed by iTLC-SG at 30 and 60 min after the start of the incubation.
as §1, with “Al^18F-L26” for “Al^18F-L3”

[4] = Biodistribution of Al18F-complexes and {Al18F}2+ in healthy male NMRI mice; format: in vivo; conditions: for uptake in blood / uptake in bone / uptake in intestines / uptake in kidneys / uptake in liver / uptake in urinary bladder: NMRI mice, tail vein
Method: (§2) Quantification of radioactivity during biodistribution studies was performed using an automated gamma counter equipped with a 3-inch NaI(TI) well crystal coupled to a multichannel analyzer, mounted in a sample changer (Perkin Elmer 1480 Wizard 3q). Counts were corrected for background radiation, physical decay and counter dead time.
(§3) The biodistribution of the [Al^18F]-L3 complex and {Al^18F}^2+ was determined in healthy male Naval Medical Research Institute (NMRI) mice (body weight: 30-40 g) at 10 and 60 min post injection (p.i.) (n=4/time point). Mice were injected with the [Al^18F]-L3 complex (about 1 MBq) or {Al^18F}^2+ (5.55 MBq) via a tail vein under anesthesia (2.5% isoflurane in O2 at 1 L/min flow rate) and sacrificed by decapitation at above specified time points. Blood and major organs were collected in tared tubes and weighed. The radioactivity in blood, organs and other body parts was counted using an automated γ-counter. For the calculation of total radioactivity in blood, bone and muscle, masses were assumed to be, respectively, 7, 12 and 40% of the total body mass.^20, 21
as §2, with “Nai(TI)” for “NaI(TI)”
as §3, with “[Al^18F]-L26” for “[Al^18F]-L3”, “(n=3/time point for 10 min p.i. and n=4/time point for 60 min p.i.).” for “(n=4/time point).”, “mass.^20,21” for “mass.^20, 21”

[5] = Stability tests of Al18F-complexes in PBS (0.1 M, pH 7) at 37° C., Example 26; format: physicochemical; conditions: PBS 0.1 M pH 7, 37° C.
Method: (§4) 400 μl of each purified [Al^18F]-complex solution was added to 1 mL of PBS and/or 1 mL of rat serum. […] Finally the supernatant was analysed using iTLC-SG.

[6] = Stability tests of Al18F-complexes in rat serum at 37° C., Example 26; format: in vitro ADME
Method: as §4

[7] = biological target: T1, PSMA (Mus musculus, UniProt O35409); experiment: Biodistribution of PSMA tracers in mice with or without coadministration of 2-PMPA; format: in vivo
T1 construct: organs with reported high expression of PSMA such as kidney; from tissue; host or cells: living mice; kidney, spleen and other organs counted ex vivo
T1 sequence (O35409 whole entry): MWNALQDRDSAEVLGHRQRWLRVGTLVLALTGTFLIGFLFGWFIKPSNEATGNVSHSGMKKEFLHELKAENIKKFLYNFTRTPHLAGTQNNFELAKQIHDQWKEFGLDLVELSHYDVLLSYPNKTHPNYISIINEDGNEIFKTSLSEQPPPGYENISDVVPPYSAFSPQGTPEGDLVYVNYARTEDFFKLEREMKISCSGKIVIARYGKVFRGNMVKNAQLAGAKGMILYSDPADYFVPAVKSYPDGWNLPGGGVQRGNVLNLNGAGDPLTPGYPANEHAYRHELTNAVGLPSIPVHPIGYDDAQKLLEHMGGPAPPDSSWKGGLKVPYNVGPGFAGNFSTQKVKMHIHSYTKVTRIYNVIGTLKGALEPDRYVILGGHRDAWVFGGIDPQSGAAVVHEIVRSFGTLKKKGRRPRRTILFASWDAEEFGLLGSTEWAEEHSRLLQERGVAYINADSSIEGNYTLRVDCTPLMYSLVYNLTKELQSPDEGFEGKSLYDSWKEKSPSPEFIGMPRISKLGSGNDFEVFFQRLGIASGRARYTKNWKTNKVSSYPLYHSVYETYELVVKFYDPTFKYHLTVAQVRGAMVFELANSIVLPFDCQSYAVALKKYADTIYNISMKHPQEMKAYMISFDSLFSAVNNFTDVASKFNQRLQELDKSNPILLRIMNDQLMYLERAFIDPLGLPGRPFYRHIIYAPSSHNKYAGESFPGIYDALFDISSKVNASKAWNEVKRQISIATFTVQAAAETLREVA
Method: The compounds ^68Ga-HBED-CC-PSMA, Al^18F-L6-PSMA, Al^18F-L27-PSMA or Al^18F-NODA-MPAA-PSMA were injected via the tail vain (1-2 MBq) with or without coadministration of 2 mg/kg 2-PMPA. At 10 min or 60 min p.i. (N=4), the animals were sacrificed. Blood and major organs were collected in tarred tubes and weighed. The radioactivity was measured using an automated γ-counter and calculated as % ID and % ID/g.
as §2

SMILES: O=C1CN2CC(=O)[O][Al-]([18F])([O]1)[O]C(=O)CN(Cc1ccccc1)[C@@H]1CCCC[C@H]12 (racemic) [Al^18F-L26]
- % intact tracer ([1]; 10 min): 99.1%
- % intact tracer ([1]; 30 min): 98.0%
- % intact tracer ([1]; 1 h): 97.8%
- % intact tracer ([1]; 2 h): 91.0%
- % intact tracer ([1]; 3 h): 95.3%
- % intact tracer ([1]; 4 h): 87.3%
- stability in PBS (in words) [1]: excellent stability; also recorded: stability comparable to that of the previously reported Al^18F-NODA
- stability in rat serum (in words) [2]: excellent stability; also recorded: stability comparable to that of the previously reported Al^18F-NODA
- % intact tracer ([2]; 10 min): 97.2%
- % intact tracer ([2]; 30 min): 99.0%
- % intact tracer ([2]; 1 h): 98±2.3% and 97.3%
- % intact tracer ([2]; 2 h): 86.7%
- % intact tracer ([2]; 3 h): 91.6%
- % intact tracer ([2]; 4 h): 91±2.4% and 91.2%
- stability at different pH (in words) [3]: stable for at least 60 min in the pH range from 2 to 8
- uptake in blood ([4]; 10 min p.i.): 2.0 % ID and 1.9 % ID
- uptake in bone ([4]; 10 min p.i.): 1.6 % ID
- uptake in intestines ([4]; 10 min p.i.): 19.6 % ID
- uptake in kidneys ([4]; 10 min p.i.): 4.6 % ID
- uptake in liver ([4]; 10 min p.i.): 49.5 % ID
- uptake in urinary bladder ([4]; 10 min p.i.): 14.3 % ID
- uptake in blood ([4]; 60 min p.i.): 0.1 % ID
- uptake in bone ([4]; 60 min p.i.): 1.9 % ID
- uptake in intestines ([4]; 60 min p.i.): 62.7 % ID
- uptake in kidneys ([4]; 60 min p.i.): 0.2 % ID
- uptake in liver ([4]; 60 min p.i.): 8.8 % ID
- uptake in urinary bladder ([4]; 60 min p.i.): 21.5 % ID
- route of clearance (in words) ([4]; mice, 60 min p.i.): hepatobiliary clearance
- in vivo stability judged from bone uptake (in words) ([4]; mice, biodistribution): high stability

- stability in PBS (in words) [5]: do not seem to be stable
- stability in rat serum (in words) [6]: unstable in serum
- RCP ([6]; 120 min): 0%
SMILES: O=C1CN2CCN(Cc3ccccc3)CC(=O)[O][Al-]([18F])([O]1)[O]C(=O)C2 [Al^18F-L1]

- stability in PBS (in words) [5]: do not seem to be stable
- RCP ([5]; 120 min): 31%
- stability in rat serum (in words) [6]: unstable in serum
- RCP ([6]; 120 min): 0%
SMILES: O=C1CN(Cc2ccccc2O)CCN2CC(=O)[O][Al-]([18F])([O]1)[O]c1ccccc1C2 (stereo not shown) [Al^18F-L2]

- RCP ([5]; 120 min): 85%
- RCP ([5]; 240 min): 74%
- stability in rat serum (in words) [6]: good stability in rat serum
- RCP ([6]; 240 min): 41%
SMILES: O=C1CN(Cc2ccccc2)CCN2CC(=O)[O][Al-]([18F])([O]1)[O]c1ccc(F)cc1C2 (stereo not shown) [Al^18F-L4]
- stability in PBS (in words) [5]: comparable to that of Al^18F-NODA-benzyl up to 60 minutes

- RCP ([5]; 120 min): 78%
- RCP ([5]; 240 min): 65%
- stability in rat serum (in words) [6]: good stability in rat serum
- RCP ([6]; 240 min): 39%
SMILES: O=C1CN(Cc2ccccc2)CCN2CC(=O)[O][Al-]([18F])([O]1)[O]c1ccc([N+](=O)[O-])cc1C2 (stereo not shown) [Al^18F-L5]
- stability in PBS (in words) [5]: comparable to that of Al^18F-NODA-benzyl up to 60 minutes

- stability in PBS (in words) [5]: do not seem to be stable
SMILES: O=C1CN(Cc2ccccc2)CCN(Cc2ccccn2)CC(=O)[O][Al]([18F])[O]1 [Al^18F-L7]

- stability in PBS (in words) [1]: only moderate stability
SMILES: O=C1CN2CC(=O)[O][Al-]([18F])([O]1)[O]C(=O)CN(Cc1ccccc1)C1CC=CCC12 (stereo not shown) [Al^18F-L30]

- % intact tracer ([1]; 1 h): 0%
- stability in PBS (in words) [1]: unstable
SMILES: O=C1CN2CC(=O)[O][Al-]([18F])([O]1)[O]C(=O)CN(Cc1ccccc1)C1CCCC12 (stereo not shown) [Al^18F-L31]

- % intact tracer ([1]; 1 h): 0%
- stability in PBS (in words) [1]: unstable
SMILES: O=C1CN2CC(=O)[O][Al-]([18F])([O]1)[O]C(=O)CN(Cc1ccccc1)c1ccccc12 [Al^18F-L32]

- RCP ([5]; 60 min): 99%
- RCP ([5]; 120 min): 98%
- RCP ([5]; 240 min): 88%
- RCP ([6]; 60 min): 99%
- RCP ([6]; 120 min): 97%
- RCP ([6]; 240 min): 87%
SMILES: O=C1CN2CCN(CCN(Cc3ccccc3)CC2)CC(=O)[O][Al]([18F])[O]1 [Al^18F-NODA-benzyl, reference compound]

SMILES: O=C([O-])CN(CCN(CC(=O)[O-])Cc1cc(CCC(=O)NCCCCCC(=O)NCCCC[C@H](NC(=O)N[C@@H](CCC(=O)O)C(=O)O)C(=O)O)ccc1[O-])Cc1cc(CCC(=O)O)ccc1[O-].[68Ga+3].[OH3+] [^68Ga-HBED-CC-PSMA]
- affinity for the PSMA receptor indicated by spleen and kidney uptake (in words) [7]: high affinity for the PSMA receptor
- in vivo stability judged from bone uptake (in words) [7]: high in vivo stability
- kidney and spleen retention when 2-PMPA was coinjected (in words) ([7]; 60 min p.i., 2 mg/kg 2-PMPA): nearly completely blocked
- retention in kidney ([7]; 60 min p.i., without 2-PMPA): 269.90±47.23 % ID/g
- retention in spleen ([7]; 60 min p.i., without 2-PMPA): 2.72±0.42 % ID/g
- bone uptake ([7]; tail vein, time point not stated): 0.39±0.09 % ID/g

SMILES: [18F][Al+2] [{Al^18F}^2+, reference compound]
- uptake in blood ([4]; 10 min p.i.): 5.0 % ID
- uptake in bone ([4]; 10 min p.i.): 60 % ID
- uptake in intestines ([4]; 10 min p.i.): 4.22 % ID
- uptake in kidneys ([4]; 10 min p.i.): 2.2 % ID
- uptake in liver ([4]; 10 min p.i.): 3.71 % ID
- uptake in urinary bladder ([4]; 10 min p.i.): 20.7 % ID
- uptake in blood ([4]; 60 min p.i.): 0.6 % ID
- uptake in bone ([4]; 60 min p.i.): 83 % ID and 83.3 % ID
- uptake in intestines ([4]; 60 min p.i.): 1.91 % ID
- uptake in kidneys ([4]; 60 min p.i.): 0.5 % ID
- uptake in liver ([4]; 60 min p.i.): 0.55 % ID
- uptake in urinary bladder ([4]; 60 min p.i.): 30.6 % ID
